Measured values published in US20110319392A1, “Thiazole Sulfonamide And Oxazole Sulfonamide Kinase Inhibitors” (priority 2009, published 2011).

Columns and labels:
[1] = target: B-Raf (Homo sapiens, UniProt P15056); experiment: B-Raf Accelerated MEK ATPase assay (BRAMA), Method A or B; format: biochemical
Procedure, shortened: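 Activated Raf plus non-phosphorylated MEK drives MEK-mediated ATP hydrolysis; ADP formation coupled via pyruvate kinase/lactate dehydrogenase to NADH oxidation. Method A read kinetically; Method B used 150 nM final MEK and a single end-point read.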

[2] = system: HT-29 tumor cells; experiment: Cell growth inhibition assay (CellTiter-Glo), HT-29; format: cell-based, Human; conditions: Homo sapiens
Procedure, shortened: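 Cells seeded at 500/well (HN5 and HT-29 in high-glucose DMEM/10% FBS; A375P F11s in RPMI/10% FBS with pyruvate; SK-MEL-3 in McCoy's 5A/15% FBS), then exposed next day to 1:3 serial compound dilutions (0.2% DMSO) for 3 days at 37° C. CellTiter-Glo luminescence measured ATP; IC50 derived by 4-parameter fit.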

[3] = Method B: final MEK 150 nM, single end point read

B-Raf, sequence (P15056 whole entry): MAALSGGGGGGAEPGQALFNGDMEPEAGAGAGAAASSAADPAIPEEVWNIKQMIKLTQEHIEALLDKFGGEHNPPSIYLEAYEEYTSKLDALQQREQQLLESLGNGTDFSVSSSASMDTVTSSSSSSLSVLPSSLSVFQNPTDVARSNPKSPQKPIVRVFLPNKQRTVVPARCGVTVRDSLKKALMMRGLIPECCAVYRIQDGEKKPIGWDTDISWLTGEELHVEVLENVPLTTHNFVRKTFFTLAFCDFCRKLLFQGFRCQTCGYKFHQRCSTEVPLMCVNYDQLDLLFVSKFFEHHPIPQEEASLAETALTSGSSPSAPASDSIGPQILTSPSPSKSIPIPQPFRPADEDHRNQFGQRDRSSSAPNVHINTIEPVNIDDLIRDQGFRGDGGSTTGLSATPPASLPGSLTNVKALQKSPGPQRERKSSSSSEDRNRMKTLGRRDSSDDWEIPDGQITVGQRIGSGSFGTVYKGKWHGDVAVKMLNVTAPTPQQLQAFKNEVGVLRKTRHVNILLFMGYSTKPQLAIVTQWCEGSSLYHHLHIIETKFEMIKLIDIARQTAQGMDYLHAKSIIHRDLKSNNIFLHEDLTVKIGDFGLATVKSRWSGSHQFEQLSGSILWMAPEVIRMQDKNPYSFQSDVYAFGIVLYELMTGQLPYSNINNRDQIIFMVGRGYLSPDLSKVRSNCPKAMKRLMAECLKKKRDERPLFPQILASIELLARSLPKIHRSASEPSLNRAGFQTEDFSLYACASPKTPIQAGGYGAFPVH

Row | Structure (SMILES) | IC50 [1, 3] [nM] | IC50 [2] [nM] | IC50 ([1]; Method A) [nM]
1 | CC(=O)N1CCN(c2ccc(Nc3nccc(-c4sc(C(C)C)nc4-c4cccc(NS(=O)(=O)c5cn(C)cn5)c4)n3)cn2)CC1 [Example 36] | < 100 | > 1000 | 
2 | CC(C)c1nc(-c2cccc(NS(=O)(=O)C3CCCCC3)c2)c(-c2ccnc(Nc3ccc(N4CCOCC4)c(F)c3)n2)s1 [Example 38] | 100 to 1000 | > 1000 | 
3 | CC(C)c1nc(-c2cccc(NS(=O)(=O)c3c(F)cccc3F)n2)c(-c2ccnc(Nc3ccc(N4CCOCC4)nc3)n2)s1 [Example 44] | < 100 | 100 to 1000 | 
4 | COc1ccc(S(=O)(=O)Nc2cccc(-c3nc(C(C)C)sc3-c3ccnc(Nc4ccc(N5CCOCC5)nc4)n3)c2)cn1 [Example 49] | < 100 | < 100 | 
5 | CC(C)c1nc(-c2cccc(NS(=O)(=O)c3cccs3)c2)c(-c2ccnc(Nc3ccc(N4CCOCC4)nc3)n2)s1 [Example 51] | < 100 | < 100 | 
6 | CC(C)c1nc(-c2cccc(NS(=O)(=O)c3cccnc3)c2)c(-c2ccnc(Nc3ccc(N4CCOCC4)nc3)n2)s1 [Example 52] | < 100 | < 100 | 
7 | CC(C)c1nc(-c2cccc(NS(=O)(=O)c3ccco3)c2)c(-c2ccnc(Nc3ccc(N4CCOCC4)nc3)n2)s1 [Example 53] | < 100 | < 100 | 
8 | CC(C)c1nc(-c2cccc(NS(=O)(=O)c3c(F)cccc3F)c2)c(-c2ccnc(Nc3ccc(N4CCOCC4)c(F)c3)n2)o1 [Example 57] | < 100 | 100 to 1000 | 
9 | Nc1nc(-c2cccc(NS(=O)(=O)c3c(F)cccc3F)c2)c(-c2ccnc(Nc3ccc(N4CCOCC4)nc3)n2)s1 [Example 62] | < 100 | 100 to 1000 | 
10 | CCNc1nc(-c2cccc(NS(=O)(=O)c3ccccc3)c2)c(-c2ccnc(Nc3ccc(OCCN4CCCC4)c(F)c3)n2)s1 [Example 65] |  | 100 to 1000 | < 100
11 | CC(=O)N1CCN(c2ccc(Nc3nccc(-c4sc(C(C)C)nc4-c4cccc(NS(=O)(=O)c5cccc(C(F)(F)F)c5)c4)n3)cn2)CC1 [Example 70] | 100 to 1000 | > 1000 | 
12 | CC(C)c1nc(-c2ccc(F)c(NS(=O)(=O)c3c(F)cccc3F)c2)c(-c2ccnc(Nc3ccc(N4CCN5CCOC[C@H]5C4)nc3)n2)s1 [Example 97] | < 100 | > 1000 | 
13 | CCOc1ccc(Nc2nccc(-c3sc(C(C)C)nc3-c3ccc(F)c(NS(=O)(=O)c4c(F)cccc4F)c3)n2)cc1N1CCN(CCF)CC1 [Example 98] | < 100 | > 1000 | 
14 | CC(C)c1nc(-c2ccnc(NS(=O)(=O)c3c(F)cccc3F)c2)c(-c2ccnc(Nc3ccc(N4CCN(CCF)CC4)c(F)c3)n2)s1 [Example 100] | < 100 | 100 to 1000 | 
15 | CN1CCC(c2nc(-c3ccc(F)c(NS(=O)(=O)c4c(F)cccc4F)c3)c(-c3ccnc(Nc4ccc(N5CCOCC5)nc4)n3)s2)CC1 [Example 106] | < 100 | 100 to 1000 | 
16 | CC(C)c1nc(-c2ccc(F)c(NS(=O)(=O)c3ccccc3C#N)c2)c(-c2ccnc(Nc3ccc(N4CCOCC4)nc3)n2)s1 [Example 107] | < 100 | 100 to 1000 | 
17 | CCOc1ccc(Nc2nccc(-c3sc(N4CCCC4)nc3-c3cccc(NS(=O)(=O)c4c(F)cccc4F)c3)n2)cc1N1CCN(CCS(C)(=O)=O)CC1 [Example 109] | < 100 | 100 to 1000 | 
18 | Cc1cc(Nc2nccc(-c3sc(C(C)C)nc3-c3ccc(F)c(NS(=O)(=O)c4c(F)cccc4F)c3)n2)ccn1 [Example 116] | < 100 | 100 to 1000 | 
19 | CS(=O)(=O)CCN1CCN(c2ccc(Nc3nccc(-c4oc(N5CCCC5)nc4-c4ccc(F)c(NS(=O)(=O)c5c(F)cccc5F)c4)n3)cc2F)CC1 [Example 119] | < 100 | 100 to 1000 | 
20 | COc1cc(N2CCN(CCS(C)(=O)=O)CC2)c(C)cc1Nc1nccc(-c2sc(C(C)(C)C)nc2-c2cccc(NS(=O)(=O)c3c(F)cccc3F)c2)n1 [Example 120] | < 100 | 100 to 1000 | 
21 | CC(C)c1nc(-c2cccc(NS(=O)(=O)c3c(F)cccc3F)c2F)c(-c2ccnc(Nc3ccc(N4CCOCC4)nc3)n2)s1 [Example 123] | < 100 | < 100 | 
22 | CN1CCN(c2nc(-c3ccc(F)c(NS(=O)(=O)c4c(F)cccc4F)c3)c(-c3ccnc(Nc4ccc(N5CCOCC5)nc4)n3)s2)CC1 [Example 126] | < 100 | 100 to 1000 | 
23 | O=S(=O)(Nc1cc(-c2nc(N3CCOCC3)sc2-c2ccnc(Nc3ccc4c(c3)OCCO4)n2)ccc1F)c1c(F)cccc1F [Example 127] | 100 to 1000 | > 1000 | 
24 | COc1cc(N2CCN(CCS(C)(=O)=O)CC2)c(C)cc1Nc1nccc(-c2sc(N3CCOCC3)nc2-c2cccc(NS(=O)(=O)c3c(F)cccc3F)c2)n1 [Example 128] | 100 to 1000 | < 100 | 
25 | Cc1cc(N2CCN(CCS(C)(=O)=O)CC2)ncc1Nc1nccc(-c2sc(C(C)C)nc2-c2cccc(NS(=O)(=O)c3c(F)cccc3F)c2)n1 [Example 131] | < 100 | < 100 | 
26 | Cc1nc(-c2cccc(NS(=O)(=O)c3c(F)cccc3F)c2)c(-c2ccnc(Nc3ccc(N4CCOCC4)nc3)n2)s1 [Example 133] | < 100 | < 100 | 
27 | O=S(=O)(Nc1cccc(-c2nc(N3CCOCC3)sc2-c2ccnc(Nc3ccc(N4CCOCC4)nc3)n2)c1Cl)c1c(F)cccc1F [Example 146] | < 100 | < 100 | 
28 | O=S(=O)(Nc1cccc(-c2nc(N3CCCCC3)sc2-c2ccnc(Nc3ccc(N4CCOCC4)nc3)n2)c1)c1c(F)cccc1F [Example 151] | < 100 | < 100 | 
29 | O=S1(=O)Cc2ccc(Nc3nccc(-c4sc(N5CCOCC5)nc4-c4cccc(NS(=O)(=O)c5c(F)cccc5F)c4F)n3)cc2C1 [Example 155] | < 100 | < 100 | 
30 | Cc1cc(Nc2nccc(-c3sc(C(C)(C)C)nc3-c3cccc(NS(=O)(=O)c4c(F)cccc4F)c3F)n2)ccn1 [Example 159] | < 100 | < 100 | 

Second part, the compound after the results:

Row | IC50 [1, 3] [nM] | IC50 [2] [nM] | IC50 ([1]; Method A) [nM] | Structure (SMILES)
31 | < 100 | > 1000 |  | CC(=O)N1CCN(c2ccc(Nc3nccc(-c4sc(C(C)C)nc4-c4cccc(NS(=O)(=O)C5CCCCC5)c4)n3)cn2)CC1 [Example 39]
32 | < 100 | 100 to 1000 |  | Cc1nc(Cl)sc1S(=O)(=O)Nc1cccc(-c2nc(C(C)C)sc2-c2ccnc(Nc3ccc(N4CCOCC4)nc3)n2)c1 [Example 42]
33 | < 100 | 100 to 1000 |  | CC(C)c1nc(-c2cncc(NS(=O)(=O)c3c(F)cccc3F)c2)c(-c2ccnc(Nc3ccc(N4CCOCC4)nc3)n2)s1 [Example 47]
34 | < 100 | 100 to 1000 |  | CC(=O)N1CCN(c2ccc(Nc3nccc(-c4oc(C(C)C)nc4-c4cccc(NS(=O)(=O)c5c(F)cccc5F)c4)n3)cn2)CC1 [Example 56]
35 | < 100 | > 1000 |  | CC(C)(C)c1nc(-c2ccc(F)c(NS(=O)(=O)c3c(F)cccc3F)c2)c(-c2ccnc(Nc3ccc(N4CCN(CCF)CC4)c(F)c3)n2)s1 [Example 99]
36 | < 100 | 100 to 1000 |  | CC(C)c1nc(-c2cc(F)c(F)c(NS(=O)(=O)c3cccc(F)c3)c2)c(-c2ccnc(Nc3ccc(N4CCN(CCF)CC4)c(F)c3)n2)s1 [Example 101]
37 | < 100 | 100 to 1000 |  | CC(C)c1nc(-c2ccc(F)c(NS(=O)(=O)c3c(F)cccc3F)c2)c(-c2ccnc(Nc3ccncc3)n2)s1 [Example 102]
38 | < 100 | 100 to 1000 |  | CN(C)c1nc(-c2ccc(F)c(NS(=O)(=O)c3c(F)cccc3F)c2)c(-c2ccnc(Nc3ccc(N4CCN(S(C)(=O)=O)CC4)nc3)n2)s1 [Example 112]
39 | < 100 | > 1000 |  | CC(C)c1nc(-c2ccc(F)c(NS(=O)(=O)c3c(F)cccc3F)c2)c(-c2ccnc(Nc3cccc(CCS(N)(=O)=O)c3)n2)s1 [Example 113]
40 | 100 to 1000 | > 1000 |  | O=S(=O)(Nc1cc(-c2nc(N3CCCC3)oc2-c2ccnc(Nc3ccc(N4CCN(CCF)CC4)c(F)c3)n2)ccc1F)c1c(F)cccc1F [Example 114]
41 | < 100 | 100 to 1000 |  | CC(C)c1nc(-c2ccc(F)c(NS(=O)(=O)c3c(F)cccc3F)c2)c(-c2ccnc(Nc3ccnc(N4CCOCC4)c3)n2)s1 [Example 117]
42 | < 100 | 100 to 1000 |  | O=S(=O)(Nc1cc(-c2nc(N3CCOCC3)sc2-c2ccnc(Nc3ccc(N4CCOCC4)nc3)n2)ccc1F)c1c(F)cccc1F [Example 121]
43 | < 100 | < 100 |  | O=S(=O)(Nc1cccc(-c2nc(N3CCOCC3)sc2-c2ccnc(Nc3ccc(N4CCOCC4)nc3)n2)c1F)c1c(F)cccc1F [Example 122]
44 | < 100 | > 1000 |  | Cc1cc(N2CCOCC2)ncc1Nc1nccc(-c2sc(N3CCCC3)nc2-c2cccc(NS(=O)(=O)c3c(F)cccc3F)c2)n1 [Example 124]
45 | < 100 | < 100 |  | CS(=O)(=O)c1cccc(Nc2nccc(-c3sc(N4CCOCC4)nc3-c3cccc(NS(=O)(=O)c4c(F)cccc4F)c3F)n2)c1 [Example 130]
46 | < 100 | < 100 |  | CS(=O)(=O)c1cccc(Nc2nccc(-c3sc(N4CCOCC4)nc3-c3cccc(NS(=O)(=O)c4c(F)cccc4F)c3Cl)n2)c1 [Example 145]
47 | < 100 | < 100 |  | CCNc1nc(-c2cccc(NS(=O)(=O)c3c(F)cccc3F)c2)c(-c2ccnc(Nc3ccc(N4CCOCC4)nc3)n2)s1 [Example 152]
48 | < 100 | < 100 |  | COc1ccc(S(C)(=O)=O)cc1Nc1nccc(-c2sc(N3CCOCC3)nc2-c2cccc(NS(=O)(=O)c3c(F)cccc3F)c2F)n1 [Example 157]
49 | < 100 | 100 to 1000 |  | O=S(=O)(Nc1cccc(-c2ncsc2-c2ccnc(Nc3ccc(N4CCOCC4)nc3)n2)c1)c1c(F)cccc1F [Example 162]
50 | < 100 | 100 to 1000 |  | CCNc1nc(-c2ccc(F)c(NS(=O)(=O)c3c(F)cccc3F)c2)c(-c2ccnc(Nc3ccc(N4CCOCC4)nc3)n2)s1 [Example 166]
